# Like-named read-outs stand apart in the source and are kept apart here.
# Tests used:
# [1] = molecular target: T1, BChE from equine serum (Equus caballus, UniProt P81908); test: Butyrylcholinesterase inhibition, spectrophotometric Ellman's method; format: biochemical; conditions: for Selectivity Index for BChE: ratio of cellular toxicity (HepG2 IC50) and IC50 for BChE; for Selectivity to BChE: IC50 for AChE/IC50 for BChE
# T1 construct: butyrylcholinesterase was from equine serum; from tissue; host or cells: equine serum
# Method: (§1) The IC50 values were determined using the spectrophotometric Ellman’s method, which is a simple and rapid method to determine the SH and -S-S- groups content in proteins. This method is widely used for the evaluation of cholinesterase activity and screening the efficiency of ChE inhibitors. Cholinesterase activity is measured indirectly by quantifying the concentration of the 5-mercapto-2-nitrobenzoic acid ion formed in the reaction between the thiol reagent 5,5′-dithiobis(2-nitrobenzoic acid) and thiocholine, a product of substrate hydrolysis (i.e., acetylthiocholine, ATCh) by cholinesterases. Ellman’s method was modified slightly according to Zdrazilova et al..
# (§2) The inhibitory potency of fifteen carbamates and five thiocarbamates was evaluated for AChE from electric eel and BChE from equine serum.
# (§3) The IC50 values were determined using the spectrophotometric Ellman’s method. All of the tested compounds were dissolved in 0.01 M dimethyl sulphoxide and then diluted in demineralised water to 0.001 M and 0.0001 M. Ellman’s method was modified slightly according to Zdrazilova et al.. Acetylcholinesterase was obtained from electric eel (Electrophorus electricus L.) and butyrylcholinesterase was from equine serum.
# [2] = molecular target: T2, AChE from electric eel (Electrophorus electricus, UniProt O42275); test: Acetylcholinesterase inhibition, spectrophotometric Ellman's method; format: biochemical, electric eel (Electrophorus electricus L.); conditions: for Selectivity Index for AChE: ratio of cellular toxicity (HepG2 IC50) and IC50 for AChE
# T2 construct: Acetylcholinesterase was obtained from electric eel (Electrophorus electricus L.); from tissue
# Method: as §1, §2, §3
# [3] = test system: HepG2 cells; conditions: cited from earlier work
# [4] = cytotoxicity determined previously, read-out: IC50 for HepG2
# [5] = approximate value, read-out: IC50 values (cytotoxicity, HepG2)
# T1 sequence (P81908 whole entry): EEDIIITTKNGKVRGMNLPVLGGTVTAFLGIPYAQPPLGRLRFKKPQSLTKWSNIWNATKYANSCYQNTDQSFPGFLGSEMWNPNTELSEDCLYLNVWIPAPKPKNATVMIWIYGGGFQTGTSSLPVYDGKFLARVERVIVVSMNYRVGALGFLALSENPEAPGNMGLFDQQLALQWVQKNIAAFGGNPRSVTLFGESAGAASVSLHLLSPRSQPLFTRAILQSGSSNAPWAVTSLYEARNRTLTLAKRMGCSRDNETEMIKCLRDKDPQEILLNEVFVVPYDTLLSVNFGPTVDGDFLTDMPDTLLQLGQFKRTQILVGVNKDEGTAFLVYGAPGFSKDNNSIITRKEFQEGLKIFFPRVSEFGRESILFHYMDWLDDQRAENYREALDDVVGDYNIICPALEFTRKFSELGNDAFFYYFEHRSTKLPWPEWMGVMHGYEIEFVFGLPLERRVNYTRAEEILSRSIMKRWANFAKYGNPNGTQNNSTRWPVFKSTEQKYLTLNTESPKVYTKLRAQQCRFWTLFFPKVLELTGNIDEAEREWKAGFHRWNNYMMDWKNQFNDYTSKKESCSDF
# T2 sequence (O42275 24-633): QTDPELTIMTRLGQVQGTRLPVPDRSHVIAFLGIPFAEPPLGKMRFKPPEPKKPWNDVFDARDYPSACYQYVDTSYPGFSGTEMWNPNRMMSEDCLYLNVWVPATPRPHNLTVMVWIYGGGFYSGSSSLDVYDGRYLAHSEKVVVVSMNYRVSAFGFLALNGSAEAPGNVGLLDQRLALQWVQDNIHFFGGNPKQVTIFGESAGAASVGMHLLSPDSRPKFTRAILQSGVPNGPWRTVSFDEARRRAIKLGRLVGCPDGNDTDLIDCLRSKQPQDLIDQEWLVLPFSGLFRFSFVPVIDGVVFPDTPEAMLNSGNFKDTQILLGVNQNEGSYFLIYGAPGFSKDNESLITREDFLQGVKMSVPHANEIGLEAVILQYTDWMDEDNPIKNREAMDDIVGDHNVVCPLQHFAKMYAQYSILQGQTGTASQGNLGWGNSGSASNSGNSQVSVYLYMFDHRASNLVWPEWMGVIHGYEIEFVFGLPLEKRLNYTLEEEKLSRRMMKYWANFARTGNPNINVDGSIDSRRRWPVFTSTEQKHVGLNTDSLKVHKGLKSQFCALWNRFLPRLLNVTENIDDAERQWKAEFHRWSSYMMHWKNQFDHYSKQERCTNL
SMILES,IC50 [1],Selectivity Index for BChE [1],IC50 [2],"IC50 [3, 4]",Selectivity to BChE [1],"IC50 [3, 5]",Selectivity Index for AChE [2]
CN(C(=O)Oc1ccc(Cl)cc1C(=O)Nc1ccc(C(F)(F)F)cc1)c1ccccc1 [4c],1.97 ± 0.02 µM,˃50.8,49.9 ± 2.76 µM,> 100 µM,–,–,–
CN(C(=O)Oc1ccc(Cl)cc1C(=O)Nc1ccc(Cl)cc1)c1ccccc1 [1c],4.2 ± 0.18 µM,68.8,74.8 ± 2.95 µM,289 µM,17.8,–,–
"O=C(Nc1ccccc1)c1ccccc1OC(=O)N(c1ccccc1)c1ccccc1 [5d, 2-(phenylcarbamoyl)phenyl diphenylcarbamate]",1.6 ± 0.01 µM,131.9,53.8 ± 4.26 µM,211 µM,–,–,–
CN(C)C(=O)Oc1ccccc1C(=O)Nc1ccccc1 [5a],83.6 ± 6.84 µM,71.6,57.7 ± 1.6 µM,5990 µM,0.7,~6000 µM,–
O=C(Nc1ccc(C(F)(F)F)cc1)c1cc(Cl)ccc1OC(=O)N(c1ccccc1)c1ccccc1 [4d],49 ± 0.17 µM,–,47.4 ± 2.78 µM,–,1.0,–,–
"CN(C(=O)Oc1ccc(Cl)cc1C(=O)Nc1ccc(Br)cc1)c1ccccc1 [2c, 2-[(4-bromophenyl)carbamoyl]-4-chlorophenyl methyl(phenyl)carbamate]",4.3 ± 0.51 µM,–,81.6 ± 2.92 µM,945 µM,19.0,–,11.6
O=C(Nc1ccc(F)cc1)c1cc(Cl)ccc1OC(=O)N(c1ccccc1)c1ccccc1 [3d],15.63 ± 0.11 µM,–,49 ± 3.88 µM,–,3.1,–,–
CN(C(=O)Oc1ccc(Cl)cc1C(=O)Nc1ccc(F)cc1)c1ccccc1 [3c],7.34 ± 0.14 µM,69.8,62.5 ± 5.03 µM,512 µM,8.5,–,8.2
"CN(C)C(=S)Oc1ccc(Cl)cc1C(=O)Nc1ccc(F)cc1 [3b, O-{4-chloro-2-[(4-fluorophenyl)carbamoyl]phenyl} dimethylcarbamothioate]",91.4 ± 5.45 µM,–,89.7 ± 4.68 µM,–,1.0,–,–
CN(C(=O)Oc1ccccc1C(=O)Nc1ccccc1)c1ccccc1 [5c],11.4 ± 0.48 µM,–,55 ± 2.46 µM,–,4.8,–,–
"CN(C)C(=O)Oc1ccc(Cl)cc1C(=O)Nc1ccc(C(F)(F)F)cc1 [4a, 4-chloro-2-{[4-(trifluoro-methyl)phenyl]carbamoyl}phenyl dimethylcarbamate]",28.1 ± 0.86 µM,–,49 ± 0.54 µM,6510 µM,1.7,~6000 µM,–
CN(C)C(=O)Oc1ccc(Cl)cc1C(=O)Nc1ccc(Br)cc1 [2a],54.21 ± 0.3 µM,–,62.4 ± 1.36 µM,–,1.2,–,–
"CN(C)C(=S)Oc1ccc(Cl)cc1C(=O)Nc1ccc(Cl)cc1 [1b, O-{4-Chloro-2-[(4-chlorophenyl)carbamoyl]phenyl} dimethylcarbamothioate]",51.4 ± 1.65 µM,1.6,39 ± 1.11 µM,83.5 µM,0.8,–,2.1
"CN(C)C(=O)Oc1ccc(Cl)cc1C(=O)Nc1ccc(F)cc1 [3a, 4-chloro-2-[(4-fluorophenyl)carbamoyl]phenyl dimethylcarbamate]",311 ± 4.5 µM,–,76.2 ± 2.87 µM,–,–,–,–
O=C(Nc1ccc(Cl)cc1)c1cc(Cl)ccc1OC(=O)N(c1ccccc1)c1ccccc1 [1d],106 ± 3.64 µM,–,54.8 ± 1.43 µM,–,–,–,–
O=C(Nc1ccc(Br)cc1)c1cc(Cl)ccc1OC(=O)N(c1ccccc1)c1ccccc1 [2d],145 ± 29 µM,–,63.3 ± 0.95 µM,–,–,–,–
CN(C)C(=S)Oc1ccccc1C(=O)Nc1ccccc1 [5b],26.6 ± 2.78 µM,–,61.9 ± 6.56 µM,–,2.3,–,–
CN(C)C(=S)Oc1ccc(Cl)cc1C(=O)Nc1ccc(Br)cc1 [2b],54.64 ± 0.42 µM,–,59.1 ± 2.13 µM,–,1.1,–,–
CN(C)C(=O)Oc1ccc(Cl)cc1C(=O)Nc1ccc(Cl)cc1 [1a],88.4 ± 1.27 µM,–,72.9 ± 1.06 µM,–,0.8,–,–
CN(C)C(=S)Oc1ccc(Cl)cc1C(=O)Nc1ccc(C(F)(F)F)cc1 [4b],36.22 ± 0.28 µM,1.9,42 ± 0.55 µM,67.3 µM,1.2,–,–

# Reference: article PMC6274279, “Novel Cholinesterase Inhibitors Based on O-Aromatic N,N-Disubstituted Carbamates and Thiocarbamates” (Molecules, 2016)
